Data as given in the Deep4Chem optical property database.
Where “and” joins values, the source holds several entries; their conditions need not be identical. Identical values can stand only once.

Assay: solvent given as SMILES

In the case of `COc1cccc(C2=c3c(c4ccc(C(C)(C)C)cc4c4cc(C(C)(C)C)ccc34)=[N+]3C2=C(c2ccccc2)c2c(-c4cccc(OC)c4)c4c5ccc(C(C)(C)C)cc5c5cc(C(C)(C)C)ccc5c4n2[B-]3(F)F)c1`, the absorption maximum (in C1CCCCC1) is reported as 680 nm, the absorption maximum (in C1CCOC1) is reported as 677 nm and the absorption maximum (in CC#N) is reported as 670 nm. The absorption maximum (in Cc1ccccc1) was 682 nm and the absorption maximum (in ClCCl) was 677 nm.

For `O=P1(c2ccccc2)C(c2cc(C(F)(F)F)cc(C(F)(F)F)c2)=Cc2c3ccc4cccc5ccc(c6cc(-c7ccccc7)n1c26)c3c45` (centres undefined), the absorption maximum (in C1CCCCC1) was 451 nm, the absorption maximum (in C1CCOC1) was 451 nm and the absorption maximum (in C1COCCO1) was 448 nm. It also gave an absorption maximum (in CC#N) of 445 nm, an absorption maximum (in CC(C)=O) of 446 nm and an absorption maximum (in CO) of 444 nm. It also gave an absorption maximum (in Cc1ccccc1) of 453 nm, an absorption maximum (in ClC(Cl)Cl) of 452 nm and an absorption maximum (in ClCCl) of 450 nm.

Work on `CC1=C(C)C(c2c(C)c(C)c3n2[B-](F)(F)[N+]2=C(C)C(C)=C(C)C2=C3)=[N+]2C1=Cc1c(C)c(C)c(C)n1[B-]2(F)F` yielded an absorption maximum (in ClCCl) of 562 nm.

Compound `CC1(C)c2cccc(-c3nc(-c4ccccc4)nc(-c4ccccc4)n3)c2Oc2c(-n3c4ccccc4c4ccccc43)cccc21` has an absorption maximum (in Cc1ccccc1) of 341 nm.

`CCC1(CC)c2cc(B(c3c(C)cc(C)cc3C)c3c(C)cc(C)cc3C)ccc2-c2c1c1c(c3c2C(CC)(CC)c2cc(B(c4c(C)cc(C)cc4C)c4c(C)cc(C)cc4C)ccc2-3)C(CC)(CC)c2cc(B(c3c(C)cc(C)cc3C)c3c(C)cc(C)cc3C)ccc2-1` showed an absorption maximum (in C1CCOC1) of 362 nm, an absorption maximum (in CC#N) of 359 nm and an absorption maximum (in CC(C)=O) of 360 nm. For the same compound, the absorption maximum (in CCCCCC) was 362 nm and the absorption maximum (in Cc1ccccc1) was 364 nm.

With `CC(=O)c1c2c(cc3c(N(C)C)cccc13)CCC2` the absorption maximum (in C1CCCCC1) was 314 nm, the absorption maximum (in C1CCOC1) was 330 nm and the absorption maximum (in C1COCCO1) was 319 nm. The absorption maximum (in CC#N) was 316 nm, the absorption maximum (in CCO) was 334 nm and the absorption maximum (in CS(C)=O) was 334 nm. For the same compound, the absorption maximum (in Cc1ccccc1) was 322 nm, the absorption maximum (in ClC(Cl)Cl) was 334 nm and the absorption maximum (in ClCCl) was 334 nm.

`F[B-]1(F)n2c(c3cccc4cccc2c43)=Nc2ccc3ccccc3[n+]21` gave an absorption maximum (in C1CCOC1) of 486 nm, an absorption maximum (in CC#N) of 481 nm and an absorption maximum (in CCCCCC) of 490 nm. It also gave an absorption maximum (in Cc1ccccc1) of 490 nm and an absorption maximum (in ClCCl) of 455 nm.

`CC(C)(C)NC(=O)c1cccc2ccc3c4ccc(F)cc4c4cc(F)ccc4c3c12` gave an absorption maximum (in ClCCl) of 329 nm.

With `C[Si](C)(C)C#Cc1cccc2ccccc12` the absorption maximum (in C1CCCCC1) was 316 nm.

Work on `COc1cc(C(=O)O)ccc1O` yielded an absorption maximum (in C1CCCCC1) of 287.2 nm, an absorption maximum (in C1COCCO1) of 290 nm and an absorption maximum (in CC#N) of 290 nm. The absorption maximum (in CC(C)(C)O) was 291 nm, the absorption maximum (in CC(C)CO) was 292.4 nm and the absorption maximum (in CC(C)O) was 291.6 nm. For the same compound, the absorption maximum (in CCOC(C)=O) was 290.5 nm, the absorption maximum (in CO) was 293.6 nm and the absorption maximum (in O) was 285 nm and 283.2 nm.

Compound `CCCC1(CCC)c2cc(-c3ccc(C(C)(C)C)cc3)ccc2-c2ccc(-c3ccc4c(c3)C(CCC)(CCC)c3cc(-c5ccc6c(c5)C(CCC)(CCC)c5cc(-c7ccc8c(c7)C(CCC)(CCC)c7cc(-c9ccc(C(C)(C)C)cc9)ccc7-8)ccc5-6)ccc3-4)cc21` has an absorption maximum (in C1CCCCC1) of 366 nm.

With `COc1cc2c(cc1-c1ccc(N(C)C)cc1)Cc1c3c(c4c(c1-2)-c1cc(OC)c(-c2ccc(N(C)C)cc2)cc1C4)C(=O)N(CCC(C)C)C3=O` the absorption maximum (in C1CCOC1) was 440 nm.

Work on `CC(C)(C)c1ccc(-c2cnc3cccc(-c4ccccc4)n23)cc1` yielded an absorption maximum (in ClCCl) of 339 nm.

In the case of `c1cc2ccc3ccc4cc3c2cc1c1ccc2ccc3ccc(cc3c2c1)c1ccc2c(c1)c1cc4ccc1[C@]13OCCO[C@]21OCCO3`, the absorption maximum (in Cc1ccccc1) is reported as 366 nm.

With `c1cc2ccc1-c1ccc(cc1)-c1sc(c3c1OCCO3)-c1ccc(cc1)-c1ccc(cc1)-c1sc(c3c1OCCO3)-c1ccc(cc1)-c1ccc(cc1)-c1sc-2c2c1OCCO2` the absorption maximum (in C1CCOC1) was 371 nm.

Compound `Nc1ccc(C#Cc2ccc3ccc4ccc(C#Cc5ccc(NS(=O)(=O)c6ccc([N+](=O)[O-])cc6[N+](=O)[O-])cc5)c5ccc2c3c45)cc1` has an absorption maximum (in CO) of 406 nm.

`O=[N+]([O-])c1ccc(/C=C/c2c[nH]c3ccccc23)cc1` gave an absorption maximum (in CC#N) of 410 nm, an absorption maximum (in CCCCCCC) of 393 nm and an absorption maximum (in CO) of 413 nm. The absorption maximum (in O) was 418 nm.

`CCCCOc1cc(C=C2c3ccccc3-c3ccccc32)c(OCCCC)cc1C=C1c2ccccc2C=Cc2ccccc21` showed an absorption maximum (in C1CCOC1) of 395 nm.

Compound `CC1=CC(/C=C/c2ccc(OCCCN=[N+]=[N-])cc2)=[N+]2C1=C(c1ccc(N3CCCCC3)cc1)c1c(C)cc(C)n1[B-]2(F)F` has an absorption maximum (in CO) of 570 nm.

Compound `CCCCn1c2ccc(-c3ccc4ccccc4c3)cc2c2ccc3c4cc(-c5ccc6ccccc6c5)ccc4n(CCCC)c3c21` has an absorption maximum (in ClC(Cl)Cl) of 327 nm.

`CC[N+]1=C(/C=C/C=C/C=C/C=C2/N(CCCCCC(=O)O)c3ccccc3C2(C)C)C(C)(C)c2cc(S(=O)(=O)[O-])ccc21` gave an absorption maximum (in CO) of 751 nm and an absorption maximum (in O) of 745 nm.

Work on `CC(C)(C)C1CCC(=CS/C=C/c2ccc(/C=C/SC=C3CCC(C(C)(C)C)CC3)cc2)CC1` (centres undefined) yielded an absorption maximum (in ClCCl) of 351 nm.

In the case of `COc1ccc(-c2cc(-c3ccc(C)cc3)c(C#N)c(OC)n2)cc1`, the absorption maximum (in C1CCOC1) is reported as 339 nm, the absorption maximum (in CC#N) is reported as 338 nm and the absorption maximum (in CC(C)=O) is reported as 340 nm. For the same compound, the absorption maximum (in CCCCCC) was 334 nm, the absorption maximum (in CCOC(C)=O) was 335 nm and the absorption maximum (in CN(C)C=O) was 343 nm. For the same compound, the absorption maximum (in CO) was 338 nm, the absorption maximum (in CS(C)=O) was 344 nm and the absorption maximum (in ClC(Cl)Cl) was 341 nm.

Work on `CCn1c2ccccc2c2cc(/C=C/c3cc(/C=C/c4ccc5c(c4)c4ccccc4n5CC)[n+](CCCS(=O)(=O)[O-])c(/C=C/c4ccc5c(c4)c4ccccc4n5CC)c3)ccc21` yielded an absorption maximum (in C1CCOC1) of 464 nm, an absorption maximum (in CC#N) of 458 nm and an absorption maximum (in CC(C)=O) of 462 nm. For the same compound, the absorption maximum (in Cc1ccccc1) was 466 nm.

Work on `Cc1cc(C)c(C2=C3C=CC4=[N+]3[B-]3(Oc5ccccc54)Oc4ccccc4-c4ccc2n43)c(C)c1` (centres undefined) yielded an absorption maximum (in ClC(Cl)Cl) of 626 nm.

`CCCCCCN(c1ccccc1)c1ccc(/C=C/c2cc(=O)oc3cc(C)ccc23)cc1` gave an absorption maximum (in CS(C)=O) of 432 nm and an absorption maximum (in ClC(Cl)Cl) of 424 nm.

In the case of `c1csc(-c2cnc(-c3cccs3)c3nonc23)c1`, the absorption maximum (in C1CCCCC1) is reported as 461 nm, the absorption maximum (in CC(C)=O) is reported as 461 nm and the absorption maximum (in CCCCCC) is reported as 458 nm. For the same compound, the absorption maximum (in CCCO) was 466 nm, the absorption maximum (in CCO) was 460 nm and the absorption maximum (in CCOCC) was 462 nm. The absorption maximum (in CO) was 460 nm, the absorption maximum (in Cc1ccccc1) was 465 nm and the absorption maximum (in ClC(Cl)(Cl)Cl) was 465 nm. It also gave an absorption maximum (in ClC(Cl)Cl) of 464 nm, an absorption maximum (in Nc1ccccc1) of 474 nm and an absorption maximum (in O=[N+]([O-])c1ccccc1) of 476 nm. The absorption maximum (in OCC(O)CO) was 471 nm, the absorption maximum (in OCc1ccccc1) was 473 nm and the absorption maximum (in c1ccc2ncccc2c1) was 477 nm. For the same compound, the absorption maximum (in c1ccccc1) was 465 nm and the absorption maximum (in c1ccncc1) was 472 nm.

In the case of `CCCCCCCCn1c(=O)c2cc3c(C#Cc4ccc(N(c5ccccc5)c5ccccc5)cc4)c4cc5c(=O)n(CCCCCCCC)c(=O)c5cc4c(C#Cc4ccc(N(c5ccccc5)c5ccccc5)cc4)c3cc2c1=O`, the absorption maximum (in ClC(Cl)Cl) is reported as 582 nm.

For `CC(C)(C)c1ccc(C#Cc2c(C#Cc3ccc(C(C)(C)C)cc3)c3cccc4c(C#Cc5ccc(C(C)(C)C)cc5)c(C#Cc5ccc(C(C)(C)C)cc5)c5cccc2c5c34)cc1`, the absorption maximum (in ClCCl) was 410 nm.

With `Cc1cc(C)c(C)c(-c2cc(-c3c(C)c(C)cc(C)c3C)c3ccc4c(-c5c(C)c(C)cc(C)c5C)cc(-c5c(C)c(C)cc(C)c5C)c5ccc2c3c54)c1C` the absorption maximum (in ClCCl) was 364 nm.

`Clc1ccc2nc3cc4ccccc4cc3c(-c3ccccc3)c2c1` showed an absorption maximum (in ClCCl) of 402 nm.

With `C#Cc1ccc2c(C)cc(=O)oc2c1` the absorption maximum (in CCO) was 325 nm.

`CN1C(=CC2=C([O-])C(=O)C2=C(C#N)C#N)Sc2ccccc21` showed an absorption maximum (in CCO) of 481 nm.

Work on `CC1=CC(C)=[N+]2C1=C(c1ccccc1)c1c(C)cc(/C=C/c3ccc(O)cc3)n1[B-]2(F)F` yielded an absorption maximum (in O) of 565 nm.

Work on `N#CC1=CC(Br)=CC(C#N)=P1(c1ccccc1)c1ccccc1` yielded an absorption maximum (in ClC(Cl)Cl) of 482 nm.

For `CCCCCCCCCCCCCCCCCCN1C(=O)c2cccc3c(OCCN(C)C)ccc(c23)C1=O`, the absorption maximum (in CC#N) was 363 nm, the absorption maximum (in CC(C)=O) was 362 nm and the absorption maximum (in CCO) was 362 nm. For the same compound, the absorption maximum (in CCOC(C)=O) was 363 nm, the absorption maximum (in CCOCC) was 359 nm and the absorption maximum (in CN(C)C=O) was 364 nm. It also gave an absorption maximum (in ClCCl) of 363 nm.

With `c1ccc(C2=C(c3ccccc3)c3cccc4c3c(cc3nc5c(-c6ccccc6)ccc(-c6ccccc6)c5nc34)O2)cc1` the absorption maximum (in ClCCl) was 503 nm.

For `Clc1nc(Nc2ccccc2)nc(Nc2ccc3c4cccc5cccc(c6cccc2c63)c54)n1`, the absorption maximum (in C1COCCO1) was 444 nm, the absorption maximum (in CC#N) was 442 nm and the absorption maximum (in CCCCOCCCC) was 443 nm. For the same compound, the absorption maximum (in CCOC(C)=O) was 442 nm.

Work on `CCCCCCC(CCCCCC)N1C(=O)c2cccc3c(-c4ccccc4)ccc(c23)C1=O` yielded an absorption maximum (in CCCCCC) of 342.2 nm, an absorption maximum (in CCCCCCCCCCCCCC) of 343.4 nm and an absorption maximum (in CCCCCCCCCCCO) of 353.4 nm. For the same compound, the absorption maximum (in CCCCO) was 355.2 nm, the absorption maximum (in CN(C)C=O) was 355.2 nm and the absorption maximum (in Cc1ccccc1) was 346.8 nm. For the same compound, the absorption maximum (in ClC(Cl)Cl) was 355.4 nm.

`CCCCC(CC)CN1C(=O)c2cc(Oc3ccc(OC)cc3)c3c4c(Oc5ccc(C(C)(C)C)cc5)cc5c6c(cc(Oc7ccc(C(C)(C)C)cc7)c(c7c(Oc8ccc(OC)cc8)cc(c2c37)C1=O)c64)C(=O)N(c1c(C(C)C)cccc1C(C)C)C5=O` (centres undefined) gave an absorption maximum (in Cc1ccccc1) of 581 nm.

`COc1cc2c(cc1-c1ccc(C)cc1)Cc1c3c(c4c(c1-2)-c1cc(OC)c(-c2ccc(C)cc2)cc1C4)C(=O)N(CCC(C)C)C3=O` showed an absorption maximum (in C1CCOC1) of 411 nm.

For `CN(C)c1ccc(C#Cc2ccc3ccc4c(C#Cc5ccc(N(C)C)cc5)ccc5ccc2c3c54)cc1`, the absorption maximum (in C1COCCO1) was 430 nm, the absorption maximum (in CC(C)=O) was 447 nm and the absorption maximum (in CCCCCC) was 439 nm. For the same compound, the absorption maximum (in CCCCCCO) was 430 nm, the absorption maximum (in CCO) was 431 nm and the absorption maximum (in CCOC(C)=O) was 431 nm. For the same compound, the absorption maximum (in CO) was 436 nm, the absorption maximum (in Cc1ccccc1) was 433 nm and the absorption maximum (in ClCCl) was 439 nm.

`CC1=CC(C)=[N+]2C1=C(c1c(-c3ccccn3)nc3ccccn13)c1c(C)cc(C)n1[B-]2(F)F` showed an absorption maximum (in ClCCl) of 518 nm.
